Here are results for seven molecules from patent US20260200964A1, “MONOSACCARIDES, PHARMACEUTICAL COMPOSITIONS, AND DIAGNOSTIC AND THERAPEUTIC APPLICATIONS” (Surio Therapeutics Co., LTD., priority 2022, published 2026).

Data set [1] is described as follows: Compound stability in a biological matrix (mouse plasma). The class given is in vitro ADME. The following applies: 10 μg/mL, 37° C., LC-MS/MS. The protocol: (§1) A compound was dissolved in DMSO as a 1 mg/mL stock solution. An ACN solution of the compound at 100 μg/mL was prepared from the stock solution, 10 μL of which was added to a biological matrix (90 μL) to the final concentration of 10 μg/mL for the compound. The mixtures of the compound in a biological matrix were incubated at 37° C. for 0, 0.5, 1, or 4 h. At each time point, ACN (900 μL) was added to a mixture. After the mixture was centrifuged at 15,000 rpm for 5 min, the supernatant was mixed with the same volume of H2O (1% TFA) and then analyzed by LC-MS/MS. The results are summarized in Table 3, wherein Cbz-AAM is (2R,3S,4R,5S)-6-((4-((S)-6-acetamido-2-(((benzyloxy)carbonyl)amino)hexan-amido)phenyl)(phenyl)methoxy)-2-(acetoxymethyl)-5-(2-azidoacetamido)tetrahydro-2H-pyran-3,4-diyl diacetate.

The nature of data set [2]: Compound stability in a biological matrix (human plasma). Format: in vitro ADME. The following applies: 10 μg/mL, 37° C., LC-MS/MS. On the procedure:
as §1

Data set [3] concerns OVCAR3. The experiment in a line: Flow cytometry analysis of cell labeling (azido labeling efficiency). Format: cell-based. The settings on record: OVCAR3 (ovarian), azido compound 25 μM, 48 h. On the procedure: (§2) Cells (2.0×10^6 cells/mL, 2 mL) were seeded in a 6-well culture plate and attached at 37° C. overnight. After washed thrice with PBS, the cells were incubated with an azido compound (25 μM) at 37° C. for 48 h. After washed thrice with PBS, the cells were incubated with DBCO-biotin (50 μM) in 500 μL serum free DMEM at 37° C. for 1 h. The cells were washed thrice with PBS and then incubated with streptavidin-Cy5 (5 μg/mL) in 500 μL serum free DMEM at 37° C. for 1 h. The cells were washed thrice with PBS, followed by addition of 300 μL 1×trypsin/EDTA for digestion. The lifted cells were transferred to a 1.5 mL EP tube, centrifuge at 1,000 rpm for 3 min, and washed with PBS once. Finally, 500 μL PBS containing 4% PFA was added to the cell pellet to fix the cells. The cell suspension was transferred to a flow tube and mixed with 10 μL of a PI working solution (50 μg/mL) at room temperature for 30 min before being subjected to flow cytometry.
(§3) Flow cytometry was used to characterize the labeling efficiency of a compound provided herein. After cells were labeled with an azido group, DBCO-biotin was added to specifically react with the azido group. Avidin-Cy5 was added bind to the cell surface biotin for a flow cytometry analysis. Dead cells were stained with PI and excluded from the analysis. Results were presented as the mean fluorescence of live cells, compared with PBS as a negative control and Ac4ManNAz (AAM) as a positive control, Ac4ManNAz (AAM, CAS: 361154-30-5).

Data set [4] has as its system A549 cells. The description is as above. The class given is cell-based. The following applies: Homo sapiens; A549 cells (lung); azido compound 25 μM, 48 h; mean fluorescence of live cells compared with PBS negative control. The protocol:
as §2, §3

The subject of data set [5] is MDA-MB-231. The data set is described as above. The following applies: MDA-MB-231 (breast), azido compound 25 μM, 48 h. The class given is cell-based. On the procedure: as §2, §3
The mark [6] stands for this setting: mean fluorescence of live cells compared with Ac4ManNAz (AAM) positive control.
Where [7] appears, read: mean fluorescence of live cells compared with PBS negative control.

Molecules are shown by their SMILES.

Take `CC(=O)NCCCC[C@H](NC(=O)OCc1ccccc1)C(=O)Nc1ccc(C(OC2OC(COC(C)=O)C(OC(C)=O)C(OC(C)=O)C2NC(=O)CN=[N+]=[N-])c2ccnn2C)cc1` (stereo partly drawn) [Compound A8, 1-O-(1-(2-methylpyrazol-3-yl)-1-(4-(6-acetamido-2(S)-(benzyloxycarbonyl-amino)hexanamido)phenyl)methyl)-2-(2-azidoacetylamino)-2-deoxy-3,4,6-tri-O-acetyl-D-mannopyranoside]: in data set [1], the “Compound Remaining (%) Mouse 1 h” value is given as 76% and the “Compound Remaining (%) Mouse 4 h” value was 23%. Moreover, in data set [2], the “Compound Remaining (%) Human 1 h” value came out at 61% and the “Compound Remaining (%) Human 4 h” value is given as 16%. Moreover, in data set [3] (setting [6]), the “Labeling Efficiency AAM %” value was 24%. Further, the “Labeling Efficiency PBS %” value in data set [3] (setting [7]) is given as 132%. The activity at 25 µM in data set [4] was found to be 196%. Moreover, the “Labeling Efficiency AAM %” value in data set [5] (setting [6]) is listed as 31%. Moreover, the “Labeling Efficiency PBS %” value in data set [5] (setting [7]) worked out at 209%.
Consider `CC(=O)NCCCC[C@H](NC(=O)OCc1ccccc1)C(=O)Nc1ccc(C(OC2OC(COC(=O)c3cccnc3)C(OC(C)=O)C(OC(C)=O)C2NC(=O)CN=[N+]=[N-])c2ccnn2C)cc1` (stereo partly drawn) [Compound A13, 1-O-(1-(2-Methylpyrazol-3-yl)-1-(4-(6-acetamido-2(S)-(benzyloxycarbonyl-amino)hexanamido)phenyl)methyl)-2-(2-azidoacetylamino)-2-deoxy-3,4-di-O-acetyl-6-O-(pyridin-3-ylcarbonyl)-D-mannopyranoside], for which, in data set [1], the “Compound Remaining (%) Mouse 1 h” value is 76% and the “Compound Remaining (%) Mouse 4 h” value amounted to 22%. Moreover, in data set [2], the “Compound Remaining (%) Human 1 h” value amounted to 50% and the “Compound Remaining (%) Human 4 h” value was found to be 12%. For the same molecule, the activity at 25 µM in data set [4] was 180%.
For `CC(=O)NCCCC[C@H](NC(C)=O)C(=O)Nc1ccc(C(OC2OC(COC(C)=O)C(OC(C)=O)C(OC(C)=O)C2NC(=O)CN=[N+]=[N-])c2ccnn2C)cc1` (stereo partly drawn) [Compound A14, 1-O-(1-(2-Methylpyrazol-3-yl)-1-(4-(2(S),6-diacetamidohexanamido)phenyl)-methyl)-2-(2-azidoacetylamino)-2-deoxy-3,4,6-tri-O-acetyl-D-mannopyranoside] the same measures were 89%, 40%, 63%, 19% and 620%.
For `CC(=O)NCCCC[C@H](NC(C)=O)C(=O)Nc1ccc(C(OC2OC(COC(C)=O)C(OC(C)=O)C(OC(C)=O)C2NC(=O)CN=[N+]=[N-])c2nccs2)cc1` (stereo partly drawn) [Compound A15, 1-O-(1-(Thiazol-2-yl)-1-(4-(2(S),6-diacetamidohexanamido)phenyl)methyl)-2-(2-azidoacetylamino)-2-deoxy-3,4,6-tri-O-acetyl-D-mannopyranoside] the same measures were 2%, under 2%, 2%, under 2% and 318%.
In the case of `CC(=O)NCCCC[C@H](NC(C)=O)C(=O)Nc1ccc(C(OC2OC(COC(C)=O)C(OC(C)=O)C(OC(C)=O)C2NC(=O)CN=[N+]=[N-])c2cncs2)cc1` (stereo partly drawn) [Compound A16, 1-O-(1-(Thiazol-5-yl)-1-(4-(2(S),6-diacetamidohexanamido)phenyl)methyl)-2-(2-azidoacetylamino)-2-deoxy-3,4,6-tri-O-acetyl-D-mannopyranoside], in data set [1], the “Compound Remaining (%) Mouse 1 h” value amounted to 93% and the “Compound Remaining (%) Mouse 4 h” value came out at 73%. Moreover, in data set [2], the “Compound Remaining (%) Human 1 h” value worked out at 97% and the “Compound Remaining (%) Human 4 h” value stood at 86%. The activity at 25 µM in data set [4] amounted to 136%.
For `CC(=O)NCCCC[C@H](NC(C)=O)C(=O)Nc1ccc(C(OC2OC(COC(=O)Cc3cccnc3)C(OC(C)=O)C(OC(C)=O)C2NC(=O)CN=[N+]=[N-])c2ccnn2C)cc1` (stereo partly drawn) [Compound A17, 1-O-(1-(2-Methylpyrazol-3-yl)-1-(4-(2(S),6-diacetamidohexanamido)phenyl)-methyl)-2-(2-azidoacetylamino)-2-deoxy-3,4-di-O-acetyl-6-O-(pyridin-3-ylacetyl)-D-mannopyranoside], in that order: 77%, 28%, 63%, 10% and 161%.
In the case of `CC(=O)NCCCC[C@H](NC(C)=O)C(=O)Nc1ccc(C(OC2OC(COC(=O)C3CCN(C)CC3)C(OC(C)=O)C(OC(C)=O)C2NC(=O)CN=[N+]=[N-])c2ccnn2C)cc1` (stereo partly drawn) [Compound A18, 1-O-(1-(2-Methylpyrazol-3-yl)-1-(4-(2(S),6-diacetamidohexanamido)phenyl)-methyl)-2-(2-azidoacetylamino)-2-deoxy-3,4-di-O-acetyl-6-O-(1-methylpiperidin-4-ylcarbonyl)-D-mannopyranoside], in data set [1], the “Compound Remaining (%) Mouse 1 h” value was determined as 100% and the “Compound Remaining (%) Mouse 4 h” value stood at 93%. Further, in data set [2], the “Compound Remaining (%) Human 1 h” value is 95% and the “Compound Remaining (%) Human 4 h” value amounted to 85%. Besides, the activity at 25 µM in data set [4] is 104%.
